Earlier results in patent US11224576B2, “Process for the production of an abuse-proofed dosage form” (GRÜNENTHAL GMBH, priority 2004, dated 2022).

COc1cccc(C2(O)CCCCC2CN(C)C)c1 (stereo not shown) [Tramadol, tramadol]
water solubility: excellent
